From US20040121009A1, “Method of modifying the release profile of sustained release compositions” (Alkermes Controlled Therapeutics, Inc., priority 2002, published 2004)

What was measured:
[1] = Example 3: hematocrit testing; format: in vivo, rat; details: day 19 (maximum for corticosteroid groups); Groups A, B, C of Table 3
Method: (§1) Animals were dosed to receive a total of 10,000 Units of EPO in combination with a total of 100 mg of placebo microparticles (Group A), 5 mg of triamcinolone acetonide and 100 mg of placebo microparticles admixed (Group B) and 100 mg of 20% w/w hydrocortisone-containing microparticles (Group C). Sample collection time points were pre-bleed, 1, 2, 6, 12, 19, and 26 days.
To evaluate EPO serum levels, 0.4 mL samples were collected via tail vein on the days specified in Table 3 (four animals per group). After clotting, the samples were centrifuged and frozen (−70° C.). Serum EPO levels were quantitated by ELISA (R&D Systems), according to the manufacturer's instructions (Cat. No. DEP00, and the data were normalized for dose and body weight. Starting on day 12, serum samples were also assessed for EPO antibody levels weekly, using an ELISA This assay detects all antibody subclasses inasmuch as the detecting antibody is reactive with both immunoglobulin heavy (γ) and light chains. Hematocrit analyses were carried out as described in Example 1, and were tested at the following intervals relative to time of microsparticle administration: pre-bleed, 1, 2, 6, 12, 19, and 26 days.

[2] = Example 3: serum EPO levels by ELISA; format: in vivo, rat; details: 10,000 U EPO microparticles plus 100 mg placebo microparticles (A), 5 mg triamcinolone acetonide admixed with 100 mg placebo microparticles (B) or 100 mg 20% hydrocortisone microparticles (C)
Method: as §1
To evaluate EPO serum levels, 0.4 mL samples were collected via tail vein on the days specified in Table 3 (four animals per group). After clotting, the samples were centrifuged and frozen (−70° C.).

anti-EPO antibody = test: Example 3: immunogenicity, anti-EPO antibody ELISA of sera; format: in vivo, rat
[3] = for amount of peripheral fibrosis surrounding the microsphere depot in the subcutis / intensity of the granulomatous inflammatory reaction within the microsphere mass: co-administration with EPO-containing microparticles; for color of the skin overlying microsphere depots: rat, in vivo
Method: Animals were anesthetized with 5% halothane. Each animal was shaved and the back swabbed with alcohol. […] The microparticles were prepared as described above. The microparticles were injected into an interscapular site using a 21 gauge thinwall needle attached to a 1 mL syringe. Animals were dosed to receive a total of 10,000 U EPO either alone (Group A) or in combination with a total of 5 mg of hydrocortisone acetate (Group B), or 1 mg (Group C) or 5 mg (Group D) of triamcinolone diacetate. Animals were followed for 35 days post implantation.

[4] = Example 1: hematocrit testing; format: in vivo, rat; details: day 36; EPO microparticles plus 1 mg secondary agent (Group C)
Method: Animals were anesthetized with 5% halothane. […] The microparticles were prepared as described above. […] Hematocrits were evaluated manually following centrifugation for 5 minutes at 8000 rpm (on four animals per group) using a capillary tube.

## CC1(C)O[C@@H]2C[C@H]3[C@@H]4CCC5=CC(=O)C=C[C@]5(C)[C@@]4(F)[C@@H](O)C[C@]3(C)[C@]2(C(=O)CO)O1 [triamcinolone acetonide]
[1]
  hematocrit values: 69.3%±3.3
[2]
  average serum EPO levels (steady state) between day 6 and day 19: 148.6±102.9 mU/mL
anti-EPO antibody; day 19, n=4/group
  incidence of animals with anti-EPO antibodies: only one animal
anti-EPO antibody; day 19, the one positive animal of Group B
  anti-EPO antibody titer: 1800
anti-EPO antibody; day 33
  EPO antibody titer as percentage of the titer in the control group: about 50%
  incidence of animals with anti-EPO antibodies: 75%

## CC(=O)OCC(=O)[C@@]1(O)CC[C@H]2[C@@H]3CCC4=CC(=O)CC[C@]4(C)[C@H]3[C@@H](O)C[C@@]21C [hydrocortisone acetate]
[3]
  amount of peripheral fibrosis surrounding the microsphere depot in the subcutis: diminished
  intensity of the granulomatous inflammatory reaction within the microsphere mass: reduced
  color of the skin overlying microsphere depots: pallid in most rats

## CC(=O)OCC(=O)[C@@]1(O)[C@H](OC(C)=O)C[C@H]2[C@@H]3CCC4=CC(=O)C=C[C@]4(C)[C@@]3(F)[C@@H](O)C[C@@]21C [triamcinolone diacetate]
[4]
  hematocrit values: mid-60%
[3]
  amount of peripheral fibrosis surrounding the microsphere depot in the subcutis: diminished
  intensity of the granulomatous inflammatory reaction within the microsphere mass: reduced
  color of the skin overlying microsphere depots: pallid in most rats
